Data taken from patent EP0773292A1, “Immortalised embryonic hippocampal cells and their use” (BAYER AG, priority 1995, dated 1997).
Like-named read-outs stand apart in the source and are kept apart here.

Tests used:
Type in all cases: cell-based, murine
[1] = test system: HC e/n XV.B cells; assay: Ca2+-imaging (Fura-2), rise in intracellular calcium
Protocol: (§1) Fluorescent Probe: Dynamic changes of intracellular calcium concentration were measured using the Fura-2 fluorescent probe (Roe et al. 1990, Cell Calcium 11:63-73). This fluorescent dye was chosen because of its selectivity, high quantum yield and extinction co-efficient. Fura-2 permeates the living cell as a acetoxymethylester and becomes trapped within the cell after hydrolysis by intracellular esterases. The calcium-sensitive free acid of Fura-2 is able to bind to calcium ions inside the cell. Fura-2 has an excitation maximum at 380 nm and the Fura2/calcium complex peaks at 340 nm. A change in intracellular calcium concentration was calculated by recording fluorescent video images at wavelengths of 340nm and 380nm excitation and 510nm emission and by dividing the grey values of the digitized video images of 380nm from 340nm.
(§2) Loading cells with Fura-2: A stock solution with 2mM Fura-2-acetoxymethylester in dimethylsulfoxide (DMSO) was diluted to 5-10 µM with serum free Minimal Essential Medium (MEM, Gibco) containing 1.5% bovine serum albumin and 5 mM calcium chloride. The cells were incubated in a Falcon 96 well plate for 45-60 minutes at 37°C. Subsequently the cells were washed twice in N-(2-Hydroxyethyl)piperazine-N'-(2-ethanesulfonic acid) (HEPES, 5mM) buffered Tyrode solution (HEPES buffered salt solution containing 130 mM NaCl, 5 mM KCl, 2 mM CaCl2, 1 mM MgCl2, 5mM NaHCO3, 11 mM Glucose).
(§3) Imaging procedure: 100 µl of Tyrode buffer was added to the plate wells and the cells were sequencially exposed to light at 340 nm and 380 nm under a fluorescent microscope (Nikon Diaphot). The exposition time was 100 ms. A series of video images at 3 second intervals was acquired and stored as digitised pictures in the image boards of an image analysis computer (Leica, Quantimet 570). After the acquisition of 8 images the test substances were applied. The grey levels of the cells, which correspond to the fluorescence intensity, were measured in the recorded video images. The ratio was determined by dividing the measured grey levels of the "380 nm images" by the grey levels of the "340 nm images" either from averaged images or from individual cells. For averaged results, the grey levels were measured over the whole images.
(§4) The cells were loaded with Fura 2/AM between day 3 and 7 in culture. A number of agonists were tested for their ability to activate specific receptors on the cell surface which leads to a rise in intracellular calcium. The rise in calcium concentration in the cytoplasm can occur after activation of specific calcium channels in the cell membrane, after activation of neurotransmitter receptors directly coupled to ion channels that are permeable to calcium ions (i.e. NMDA or AMPA type glutamate receptors), or by activation of receptors, which propagate the signal through the activation of specific G-proteins, which regulate the activity of different enzymes in the interior of the cell (Connor, Cell Calcium 14 (1993), 185-200; Crouch and Hendry, Medical Res. Rev. 13 (1993), 105-123). The activation of phospholipase C generates the second messengers diacylglycerol and inositoltriphosphate from phospholipids in the cell membrane. The binding of inositoltriphosphate to receptors localised on internal vesicles which store calcium ions leads to a transient rise in the concentration of calcium ions in the cytoplasm (Berridge, M.J. 1993, Nature 361: 315-325).

[2] = test system: HNMMCV11.2.0; assay: as above; conditions: HNMMCV11.2.0; glutamate 10µM to 10 mM, AMPA, kainic acid, serotonine, dopamine, carbachol up to 1mM, NMDA up to 500µM
Protocol: as §1, §2, §3, §4

[3] = test system: HNMMCV13.1.E; assay: as above; conditions: HNMMCV13.1.E; glutamate 10µM to 10 mM, AMPA, kainic acid, serotonine, dopamine, carbachol up to 1mM, NMDA up to 500µM
Protocol: as §1, §2, §3, §4

[4] = test system: HNMMCV13.1.F; assay: as above; conditions: for transient rise in intracellular calcium concentration: HNMMCV13.1.F, glutamate 10µM to 10 mM, AMPA, kainic acid, serotonine, dopamine, carbachol up to 1mM, NMDA up to 500µM
Protocol: as §1, §2, §3, §4

[5] = test system: HNMMCV14.1.A; assay: as above; conditions: HNMMCV14.1.A; glutamate 10µM to 10 mM, AMPA, kainic acid, serotonine, dopamine, carbachol up to 1mM, NMDA up to 500µM
Protocol: as §1, §2, §3, §4

[6] = test system: HC e/n XVB cells; assay: Electrophysiology: whole-cell patch-clamp, ligand-activated currents; conditions: for ligand-activated currents: membrane potential clamped to -70mV; for ligand induced inward currents: differentiated HC e/n XVB cells, AMPA 100µM, NMDA, kainate, glutamate 1mM
Protocol: (§5) Electrophysiological setup: Membrane currents were measured with the patch-clamp technique in the whole-cell recording configuration (Hamill et al. 1981, Pfluegers Arch. 391:85-100). Current signals were amplified with conventional electronics (EPC-9 amplifier, HEKA Elektronik GmbH, Lambrecht, Germany), filtered at 10kHz, and sampled at 5 kHz by an interface connected to an IBM AT-compatible computer system, which also served as a stimulus generator.
(§6) Solutions and electrodes: The standard bathing solution contained (in mM): Nacl 150, KCL 5, MgCl2 1.8, HEPES 5, and glucose 10. In some experiments an equimolar amount of NaCl was replaced by 5mM BaCl2. Recording pipettes had resistances about 5MΩ (Hilgenberg, Malsfeld, Germany). The pipettes contained (in mM): KCL 140, CaCl2 0.5, EGTA 5, MgCl2 2, and HEPES 10. The pH was adjusted to 7.4. In some experiments the pipette solution was designed to minimize the contribution of voltage-activated currents. In this case, investigating the ligand-activated currents, the pipette solution contained (in mM): CsCl 140, EGTA 10, and HEPES 10.
(§7) Ligands were dissolved in the extracellular saline solution and applied via an U-tube application system. To record ligand-induced currents, the membrane potential was clamped to -70mV. For measurements of voltage-activated currents, cells were held at -70mV and every second the membrane was stepped through a 50 msec. de- or hyperpolarising test pulse to a potential between -170 and +20 mV.

[7] = test system: metabotropic glutamate receptor(s) (mGluR) expressed by HNMMCV14.1A cells; assay: Second messenger: phosphoinositide hydrolysis, accumulation of 3H-inositol phosphates
Protocol: Phosphoinositide hydrolysis was determined by measuring the accumulation of ^3H-inositol phosphates. The cells were plated in 48-well plates (Costar) at a density of 10000 cells per well and incubated for 4-5 days at 37°C, 7% CO2. Then the cells were labeled by incubation with 4 µCi of myo-2-^3H-inositol per ml medium (specific activity: […]: Amersham). After 24 h LiCl (10 mM final concentration) was added to the cells for 1 h. Agonists were then added at the concentrations indicated. The incubation was stopped after 1 h by replacing the medium with 200 µl ice-cold methanol. 400 µl of destilled water was added and the sample was directly applied to AG-1X8 ion exchange columns (AG-1X8 resin: BioRad). Free inositol and glycerophosphoryl-inositol were washed away with 16 ml destilled water followed by 10 ml 5 mM disodium-tetraborate, 60 mM sodium formate. Total ^3H-inositol phosphates (IP1, IP2, IP3) were eluted with 7 ml of 100 mM formic acid, 1 M ammonium formate. Radioactivity of the eluted ^3H-inositol phosphates was determined by liquid scintillation counting after addition of 13 ml liquid scintillation cocktail (Ultima Gold: Canberra Packard). Measurements were performed in triplicates for each experimental point. Untreated controls were set as 100% and the other values calculated in relation to this.
The columns were prepared as follows: 1 ml pipet tips were filled with one glass bead (Roth) per tip before adding 500 µl AG-1X8 resin. The resin was compressed with air and 270 µl seasand was applied. Until use they were stored at 4°C.

[8] = test system: HNMMCV14.1.A; assay: Electrophysiology: whole-cell patch-clamp, ligand-activated currents; conditions: 14.1.A; membrane potential clamped to -70mV
Protocol: as §5, §6, §7

[9] = differentiated HC e/n XV.B cells
[10] = HC e/n XV.B cells, state of differentiation not given, up to 1mM
[11] = HNMMCV14.1A cells, result in words

SMILES	transient rise in intracellular calcium concentration [2]	transient rise in intracellular calcium concentration [3]	transient rise in intracellular calcium concentration [4]	transient rise in intracellular calcium concentration [5]	ligand-activated currents ([6]; XV. B/ - EGF (differentiated))	further results
N[C@H](C(=O)O)[C@H]1C[C@@H]1C(=O)O [L-CCG 1, L-carboxycyclopropylglycin]	strong	strong	strong	strong		transient rise in intracellular calcium concentration [1, 9]: weak signals
Cc1onc(O)c1CC(N)C(=O)O (stereo not shown) [AMPA, ∝-amino-3-hydroxy-5-methyl-4-isoxazol-propionic acid]	did not result in a transient rise in intracellular calcium concentrations	did not result in a transient rise in intracellular calcium concentrations	did not result in a transient rise in intracellular calcium concentrations	did not result in a transient rise in intracellular calcium concentrations	+ (+: 10-30% positive cells)	transient rise in intracellular calcium concentration ([1]; undifferentiated HC e/n XV.B cells, AMPA, kainate up to 1mM, NMDA up to 500µM): did not result in a transient rise in intracellular calcium concentrations; ligand induced inward currents [6]: evoked responses with different peak amplitudes
NC(C(=O)O)c1cc(O)no1 (stereo not shown) [ibotenate]						effect on inositolphosphate accumulation [7]: concentration dependent increase; maximum responses (inositolphosphate accumulation) compared with glutamate [7]: slightly weaker
C[N+](C)(C)CCOC(N)=O [Carbachol]	not in any other cell line tested	not in any other cell line tested	not in any other cell line tested			transient rise in intracellular calcium concentration [1, 10]: reproducible signal
N[C@@]1(C(=O)O)CC[C@@H](C(=O)O)C1 [t-ACPD, 1S3R-aminocyclopentane-1,3-dicarboxylate]	strong	strong	strong	strong		transient rise in intracellular calcium concentration [1, 9]: weak signals; maximum responses (inositolphosphate accumulation) compared with glutamate ([7]; HNMMCV14.1A cells): slightly weaker; effect on inositolphosphate accumulation [7, 11]: concentration dependent increase
NCCc1ccc(O)c(O)c1 [Dopamine, dopamine]	did not lead to a specific signal	did not lead to a specific signal	did not lead to a specific signal	did not lead to a specific signal		transient rise in intracellular calcium concentration [1, 10]: did not lead to a specific signal
NCCc1c[nH]c2ccc(O)cc12 [Serotonine]	did not lead to a specific signal	did not lead to a specific signal	did not lead to a specific signal	did not lead to a specific signal		transient rise in intracellular calcium concentration [1, 10]: did not lead to a specific signal
N#Cc1cc2[nH]c(=O)c(=O)[nH]c2cc1[N+](=O)[O-] [CNQX, 6-nitro-7-cyanochinoxalin-2,3-dione]						antagonism of the calcium signals recorded after application of glutamate ([4]; glutamate 100µM, CNQX 100µM, cell clone taken from Table 5 (13.1.F)): not antagonised
CC(=O)OCC[N+](C)(C)C [Acetylcholine, acetylcholine]					-	ligand-activated currents [8]: + (+: 10-30% positive cells)
N[C@@H](Cn1oc(=O)[nH]c1=O)C(=O)O [Quisqualate, quisqualate]						maximum responses (inositolphosphate accumulation) compared with glutamate ([7]; HNMMCV14.1A cells): slightly weaker; effect on inositolphosphate accumulation [7, 11]: concentration dependent increase
NCCCC(=O)O [GABA]					+++ (+++: 70-100% positive cells)	reversal potential of the ligand-activated current ([6]; HC e/n XVB cells, membrane stepped from -100 to +40): ~+10 mV; ligand-activated currents ([6]; XV. B (with EGF, undifferentiated)): + (+: 10-30% positive cells); ligand induced inward currents [6]: prominent resonses; ligand-activated currents [8]: ++ (++: 30-70% positive cells)
CN[C@H](CC(=O)O)C(=O)O [NMDA, N-methyl-D-aspartate]					++ (++: 30-70% positive cells)	
